Where two headings read alike, the source gives them in different places.
How the values were obtained:
Caspase 3 = target: T1, Caspase 3 (Homo sapiens, UniProt P42574); test: Caspase 3 activity assay; type: biochemical
T1 sequence (P42574 29-175 limits assumed): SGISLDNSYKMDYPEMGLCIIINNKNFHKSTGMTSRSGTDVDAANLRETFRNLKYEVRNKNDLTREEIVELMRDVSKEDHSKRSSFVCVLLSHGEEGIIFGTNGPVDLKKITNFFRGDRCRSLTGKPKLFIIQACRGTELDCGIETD
T1 sequence (P42574 176-277 limits assumed): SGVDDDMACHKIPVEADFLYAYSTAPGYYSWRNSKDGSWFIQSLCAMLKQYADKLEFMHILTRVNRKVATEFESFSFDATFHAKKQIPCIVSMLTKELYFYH
Experimental: Compounds stocks (100 mM) were stored at −20° C. in DMSO. […] Reactions were performed as duplicates in Black LJL 96 well plates (HE microplates; Molecular Devices; 20 μl final reaction volume). The substrate concentration for caspase 3 specificity assay was 500 nM (Ac-DEVD-AMC; Promega). […] The concentrations were determined in order to perform specificity assays under initial velocities at fixed substrate concentration. Compounds were pre-incubated with enzymes for 30 minutes at 25° C. Reactions were initiated by addition of substrate to the plates containing the enzymes (+/−compounds) diluted in assay buffer. Reactions were incubated for 60 minutes at 37° C. Reactions were stopped by adding acetic acid (100 mM final). Readings were performed on a Pherastar Fluorescent Reader (BMG). δ Emission 380 nm; δ Excitation=460 nm. Data (mean values+/− standard deviation) were analyzed as % of control (no compound) and plotted as percentage versus the Log of the compound concentration using GraphPad (Prism). Data were fitted to a sigmoidal model (variable slope).

USP7 = target: T2, USP7 (Homo sapiens, UniProt Q93009); test: USP7 activity assay; type: biochemical
T2 construct: His tag (from pFastBac-HT vector) (N); made in house; host or cells: insect cells (Sf9 or High Five), baculovirus
T2 sequence (Q93009 whole entry): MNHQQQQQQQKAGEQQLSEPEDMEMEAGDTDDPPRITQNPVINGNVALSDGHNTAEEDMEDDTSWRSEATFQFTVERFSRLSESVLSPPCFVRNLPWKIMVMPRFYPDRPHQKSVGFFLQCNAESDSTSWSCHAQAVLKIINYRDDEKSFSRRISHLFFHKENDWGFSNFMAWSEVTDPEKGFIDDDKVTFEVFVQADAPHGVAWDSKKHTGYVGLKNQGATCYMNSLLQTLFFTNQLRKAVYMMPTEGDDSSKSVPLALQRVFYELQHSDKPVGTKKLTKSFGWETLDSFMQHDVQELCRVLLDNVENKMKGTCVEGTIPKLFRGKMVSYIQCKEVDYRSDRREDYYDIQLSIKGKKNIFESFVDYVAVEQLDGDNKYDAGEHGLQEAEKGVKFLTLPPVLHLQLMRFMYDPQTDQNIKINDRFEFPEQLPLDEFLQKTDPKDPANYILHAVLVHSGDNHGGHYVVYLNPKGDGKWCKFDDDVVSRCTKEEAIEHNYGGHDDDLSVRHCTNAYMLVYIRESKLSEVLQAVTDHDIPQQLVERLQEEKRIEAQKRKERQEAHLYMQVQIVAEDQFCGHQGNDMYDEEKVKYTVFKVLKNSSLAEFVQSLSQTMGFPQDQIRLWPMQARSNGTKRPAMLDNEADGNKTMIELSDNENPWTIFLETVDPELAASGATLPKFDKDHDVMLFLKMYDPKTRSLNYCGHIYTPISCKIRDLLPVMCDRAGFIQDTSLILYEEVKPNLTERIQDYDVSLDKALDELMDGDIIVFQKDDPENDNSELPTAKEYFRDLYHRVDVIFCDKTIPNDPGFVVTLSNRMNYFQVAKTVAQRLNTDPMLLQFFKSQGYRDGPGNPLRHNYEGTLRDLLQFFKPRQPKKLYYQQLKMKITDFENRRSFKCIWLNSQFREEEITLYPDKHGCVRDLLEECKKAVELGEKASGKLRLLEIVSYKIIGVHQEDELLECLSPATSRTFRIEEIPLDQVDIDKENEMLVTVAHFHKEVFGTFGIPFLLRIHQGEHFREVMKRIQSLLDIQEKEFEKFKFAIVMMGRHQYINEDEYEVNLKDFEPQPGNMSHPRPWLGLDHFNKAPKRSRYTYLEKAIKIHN

USP5 = target: T3, USP5 (Homo sapiens, UniProt P45974); test: USP5 activity assay; type: biochemical; settings: 400 nM Ub-AMC, 300 pM enzyme, 30 min pre-incubation at 25° C., 60 min at 37° C.; sigmoidal fit; AF: Autofluorescent; read-out: USP 5 (inhibition of cysteine protease activity)
T3 sequence (P45974 1-858): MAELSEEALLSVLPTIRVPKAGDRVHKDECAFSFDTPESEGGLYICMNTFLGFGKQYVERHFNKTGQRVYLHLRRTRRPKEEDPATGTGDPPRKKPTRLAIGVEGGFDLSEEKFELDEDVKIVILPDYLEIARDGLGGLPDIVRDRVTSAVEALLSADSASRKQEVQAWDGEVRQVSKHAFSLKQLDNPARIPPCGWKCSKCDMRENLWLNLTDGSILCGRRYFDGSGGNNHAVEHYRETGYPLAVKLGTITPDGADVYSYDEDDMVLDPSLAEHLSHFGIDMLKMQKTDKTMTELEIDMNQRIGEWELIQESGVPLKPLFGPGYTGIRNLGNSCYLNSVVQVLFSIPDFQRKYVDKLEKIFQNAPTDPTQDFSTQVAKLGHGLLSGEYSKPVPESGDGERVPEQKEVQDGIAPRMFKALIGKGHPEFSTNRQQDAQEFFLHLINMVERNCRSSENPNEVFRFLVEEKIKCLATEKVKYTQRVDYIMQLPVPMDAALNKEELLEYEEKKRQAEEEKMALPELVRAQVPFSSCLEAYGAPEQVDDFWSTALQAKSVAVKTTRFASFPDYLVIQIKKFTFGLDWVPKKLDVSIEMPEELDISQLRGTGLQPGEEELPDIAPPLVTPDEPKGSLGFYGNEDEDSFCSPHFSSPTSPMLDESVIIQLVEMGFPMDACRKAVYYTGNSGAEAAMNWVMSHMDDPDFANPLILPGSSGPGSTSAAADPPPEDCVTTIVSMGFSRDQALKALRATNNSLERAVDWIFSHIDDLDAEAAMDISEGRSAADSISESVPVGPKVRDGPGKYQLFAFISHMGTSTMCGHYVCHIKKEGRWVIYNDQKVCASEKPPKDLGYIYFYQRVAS
Experimental: Bovine Serum Albumin 0.05 mg·ml^−1 pH7.6). Compounds stocks (100 mM) were stored at −20° C. in DMSO. […] Reactions were performed as duplicates in Black LJL 96 well plates (HE microplates; Molecular Devices; 20 μl final reaction volume). The substrate concentration for USP5 was 400 nM Ub-AMC (Boston Biochem). The concentrations of the enzyme (USP5) in specificity assays was 300 pM. The concentrations were determined in order to perform specificity assays under initial velocities at fixed substrate concentration. Compounds were pre-incubated with enzymes for 30 minutes at 25° C. Reactions were initiated by addition of substrate to the plates containing the enzymes (+/− compounds) diluted in assay buffer. Reactions were incubated for 60 minutes at 37° C. Reactions were stopped by adding acetic acid (100 mM final). Readings were performed on a Pherastar Fluorescent Reader (BMG). λ Emission 380 nm; λ Excitation=460 nm. Data (mean values +/− standard deviation) were analyzed as % of control (no compound) and plotted as percentage versus the Log of the compound concentration using GraphPad (Prism). Data were fitted to a sigmoidal model (variable slope).

[1] = test system: HCT116 colon cancer cells; test: HCT116 cell viability and proliferation assay (MTS); type: cell-based; settings: Homo sapiens, read-out: HCT116 D3 GI50
[2] = 500 nM Ac-DEVD-AMC, 3.2 nM enzyme, 30 min pre-incubation at 25° C., 60 min at 37° C., sigmoidal fit, AF: Autofluorescent, read-out: Casp3 (inhibition of cysteine protease activity)
[3] = 400 nM Ub-AMC, 152 pM enzyme, 30 min pre-incubation at 25° C., 60 min at 37° C., sigmoidal fit, read-out: USP 7 (inhibition of cysteine protease activity)
[4] = HCT-116, HCT116 cells, 72 hours incubation, MTS, mean of 3 independent experiments

| Compound | IC50 (Caspase 3; [2]) [µM] | IC50 (USP7) [µM] | IC50 (USP5) [µM] | GI50 ([1]; HCT-116, 72 h) [µM] | IC50 (USP7; [3]) [µM] | GI50 [1, 4] [µM] | IC50 (Caspase 3) [µM] |
| --- | --- | --- | --- | --- | --- | --- | --- |
| N#Cc1nc2c(nc1C(N)=O)-c1ccccc1C2=O [Example 36, 2-cyano-9-oxo-9H-indeno[1,2-b]pyrazine-3-carboxylic acid amide] | 0.402 | 1.27 | 0.208 | 4.25 | – | – | – |
| Cc1cccc2c1C(=O)c1nc(C#N)c(C#N)nc1-2 [Example 17c, 8-Methyl-9-oxo-9H-indeno[1,2-b]pyrazine-2,3-dicarbonitrile] | 13 | – | 60 | – | > 100 | 0.39 | – |
| N#Cc1nc2c(nc1C(N)=O)-c1ccccc1/C2=N\OCC(=O)O [Example 38, (3-carbamoyl-2-cyano-indeno[1,2-b]pyrazin-9-ylideneaminooxy)-acetic acid] | – | 4.03 | 1.85 | > 10 | – | – | 3.94 |
| Cc1ccc2c(c1)-c1nc(C#N)c(C#N)nc1C2=O [Example 17e, 6-Methyl-9-oxo-9H-indeno[1,2-b]pyrazine-2,3-dicarbonitrile] | 3.3 | – | 7.8 | – | 7.2 | 0.3 | – |
| COCCOc1nc2c(nc1C#N)C(=O)c1ccccc1-2 [Example 5, 3-(2-methoxy-ethoxy)-9-oxo-9H-indeno[1,2-b]pyrazine-2-carbonitrile] | > 100 | – | > 100 | – | > 100 | > 10 | – |
| N#Cc1nc2c(nc1C#N)-c1ccccc1C2=NO [Example 12, 9-[hydroxyimino]-9H-indeno[1,2-b]pyrazine-2,3-dicarbonitrile] | 5.6 | – | 45 | – | > 100 | 6.5 | – |
| N#Cc1nc2c(nc1C(N)=O)-c1ccccc1/C2=N\OCC(=O)NCC(=O)O [Example 41, [2-(3-carbamoyl-2-cyano-indeno[1,2-b]pyrazin-9-ylideneaminooxy)-acetylamino]-acetic acid] | 1.98 | 4.28 | 1.89 | > 10 | – | – | – |
